The conditions of the first data set: acidic group.
In the case of `CC[C@@H]1OC(=O)[C@@H](C)[C@H](O)[C@@H](C)[C@H](O[C@H]2O[C@@H](C)C[C@@H]([N+](C)(C)O)[C@@H]2O)[C@]2(C)C[C@H](C)C3(O[C@]1(C)C=C3C)O2`, the pKa was 4.3.
Still for that read-out and setting: the value for `O=[N+]([O-])c1ccc(S(=O)(=O)O)cc1` was -7.15; that for `O=[N+]([O-])c1ccc(/C(=N\O)c2ccccc2)cc1` was 10.8.
Consider `O/N=C\c1ccco1`, for which the pKa came out at 10.8.
Still for that read-out and setting: the result for `O/C(=C/c1cc[nH+]cc1)c1ccccc1` reads 4.19.
On the same count and under the same terms, the value for `Oc1ccc(F)cc1C[NH+]1CCCCC1` was 8.81; that for `CC(C)(C)OC(=O)NC(CCC(N)=O)C(=O)O` (stereo not drawn) was 3.66; that for `CN(C)C(=O)CC(=O)c1ccncc1` was 7.75.
The same measure, in the same setting: the value for `CC(=O)c1ccc(S)cc1` was 5.33; that for `CSc1ncc2[nH]cnc2n1` was 8.91.
`O=C(O)Cn1ncnn1`: the pKa came out at 2.12.
On the same count and under the same terms, the result for `O/N=C/C=C/c1ccccc1` reads 10.6.
On to `O=C(O)COc1ccccc1[N+](=O)[O-]`, for which the pKa worked out at 2.9.
Same read-out and setting: the value for `CC(C)[C@@]12C[NH2+][C@@H](C(=O)O)[C@@H]1CC(=O)O2` was 2.45.
The compound `OC[C@@H]1O[C@H]([n+]2ccc(NO)nc2O)[C@@H](O)[C@H]1O` yielded a pKa of 2.26.
Take `N#Cc1ccc(S(=O)(=O)NCc2ccccc2)cc1`: the pKa stood at 10.3.
In the case of `O=C(/C=N/O)c1ccccc1`, the pKa stood at 8.31.
On to `O=C(O)C12CCC(C1)C2`, for which the pKa came to 3.96.
In the case of `O=Cc1cc(Br)cc([N+](=O)[O-])c1O`, the pKa worked out at 4.46.
The same measure, in the same setting: the value for `O=C(c1ccccc1)c1cccc(O)c1` was 9.
On the same count and under the same terms, the result for `Cc1ccc(S(=O)(=O)NCC[NH+](CC(=O)O)CC(=O)O)cc1` reads 2.15.
As for `NS(=O)(=O)c1ccccc1`, the pKa is 9.7.
The same measure, in the same setting: the result for `C/C(=N\O)C(=O)NO` reads 7.74; that for `[NH3+]CCC(=O)N[C@@H](Cc1c[nH+]c[nH]1)C(=O)O`, 2.63; that for `Oc1ccccc1CN1CCOCC1`, 10.3.
On the same count and under the same terms, the result for `O=C(O)CSc1ccccc1[N+](=O)[O-]` reads 3.18; that for `Cc1cc2cccc(O)c2nc1C`, 10.2; that for `C/C(=N/c1ccccc1O)c1ccccc1O`, 9.23.
Same read-out and setting: the value for `CCOC(=O)/C(=N/O)c1ccccc1` was 8.95; that for `O=C(O)/C(I)=C/c1ccccc1` was 3.3.
`NS(=O)(=O)c1ccc(Cl)cc1` had a pKa of 9.5.
Same read-out and setting: the value for `c1nc2cc3c(cc2[nH]1)CCCC3` was 13.3; that for `NC(=O)C(CCC(=O)O)c1ccccc1` (stereo not drawn) was 4.64.
Turning to `C[n+]1ccc2c(O)cccc2c1`, the pKa is 6.9.
On the same count and under the same terms, the value for `O=C(O)c1ccc(F)c([N+](=O)[O-])c1` was 3.37; that for `Nc1ccc(O)c(N)c1` was 10.4.
Turning to `O=C(O)/C(Cl)=N/O`, the pKa was found to be 1.5.
Same read-out and setting: the result for `O=C(O)c1cnc(Cl)s1` reads 3.
With `O=[N+]([O-])c1cccc(S(=O)O)c1`, the pKa came to 1.21.
In turn, `CC(=O)c1ccccc1O` showed a pKa of 10.4.
The compound `O=C([O-])/C=C\C(=O)NOCc1ccccc1` returned a pKa of 10.
Turning to `O=C1CCCC1=O`, the pKa amounted to 9.14.
Still for that read-out and setting: the value for `ONc1ncnc2nc[nH]c12` was 9.83; that for `COc1nc(-n2nc(C)cc2O)nc(C)c1C` was 7.64.
`CCN(CC)Cc1cc(C)ccc1O` gave a pKa of 10.8.
The same measure, in the same setting: the result for `O=Cc1cc(Cl)ccc1O` reads 7.4; that for `Oc1ccc2ncsc2c1`, 9.21.
On the same count and under the same terms, the value for `Nc1nc(C(F)(F)F)c2[nH]cnc2n1` was 8.87.
Same read-out and setting: the value for `CNc1nc(SC)nc2[nH]ncc12` was 11.4; that for `Nc1c[nH]nc1[N+](=O)[O-]` was 9.5; that for `O=C1O[C@@H]([C@H](O)CO)C([O-])=C1O` was 11.6.
Compound `N#CC(CCCCC(=O)O)c1ccccc1` (stereo not drawn) registered a pKa of 4.75.
`C/C(=C\C=C\C(C)C(=O)O)[C@H]1C[NH2+][C@H](C(=O)O)[C@H]1CC(=O)O` (stereo partly drawn) had a pKa of 2.1.
Still for that read-out and setting: the value for `C[C@H](O)C(=O)C1=Nc2c(nc(N)[nH+]c2O)NC1` was 1.45; that for `Oc1cccc2cc3ccccc3cc12` was 9.88.
Consider `CC(C)C([NH2+]c1ccccc1)C(=O)O` (stereo not drawn), for which the pKa came out at 4.4.
Same read-out and setting: the result for `CC(C(=O)c1ccccc1)[n+]1ccccc1` (stereo not drawn) reads 11.5.
In turn, `O/N=C/c1ccco1` returned a pKa of 10.8.
Still for that read-out and setting: the value for `CCOC(=O)c1cc(C)[n+](O)c(C)c1` was -0.13; that for `CC(=O)C1CCCCC1=O` (stereo not drawn) was 10.2.
On the same count and under the same terms, the value for `C[NH+](C)Cc1cc(F)ccc1O` was 8.12.
For the compound `CCN(CC)C(=S)NC(=O)c1ccccc1`, the pKa stood at 8.45.
Regarding `O=C(O)C1=C(CO)CCC1`, the pKa is 4.54.

Still in this data set, the particulars now being: basic group.
Compound `[O-]c1nccc2c1cnc1ccccc12` returned a pKa of 11.3.
Still for that read-out and setting: the result for `c1ccc(C2=NCCC2)cc1` reads 7.2.
Same read-out and setting: the value for `O=C([O-])[C@@H](O)Cc1c[nH]cn1` was 7.32.
With `C(=C\c1ccncc1)/c1ccncc1`, the pKa worked out at 5.82.
In the case of `CCCCCCCCCCCCN(CC(C)O)CC(O)CC` (stereo not drawn), the pKa worked out at 6.2.
`NNC(=O)c1cccc([NH3+])c1`: the pKa worked out at 2.57.
Still for that read-out and setting: the value for `CCCCOC(=O)c1ccc(N)cc1` was 2.47; that for `Cc1cc(N)nc(N)n1` was 7.65; that for `N#Cc1ccccn1` was -0.26.
The same measure, in the same setting: the result for `O=[N+]([O-])c1ccc([O-])c(CN2CCOCC2)c1` reads 7.92.
Same read-out and setting: the value for `c1ccc2c(c1)C1CCN2c2ccccc21` was 4.54; that for `CC1CN=C(C(C)(C)C)S1` (stereo not drawn) was 5.02; that for `[NH3+]CCC(=O)NCCc1c[nH]cn1` was 6.84.
With `CCCCOC(=N)c1ccccc1`, the pKa amounted to 6.09.
Consider `CSc1ncc2[nH]cnc2n1`, for which the pKa was 1.91.
On the same count and under the same terms, the result for `CN(C)c1ccc(C#N)cc1` reads 1.78; that for `CCOC(=O)c1cnc2c([N+](=O)[O-])cccc2c1[O-]`, 8.9; that for `C[NH+](C)CCCN`, 6.74.
Take `C/N=C(\C)SC`: the pKa stood at 7.71.
The same measure, in the same setting: the value for `Nc1ccnc(-c2cc(N)ccn2)c1` was 8.8; that for `OCc1ccncc1` was 5.41; that for `NCCc1ccc(Br)cc1` was 9.65.
Still for that read-out and setting: the result for `O=C([O-])c1cc2cc(Cn3ccnc3)ccc2o1` reads 7.17; that for `Nc1ccc2cccnc2c1`, 6.65; that for `CN(C)CCCC(=O)Oc1ccc([N+](=O)[O-])cc1`, 9.6.
As to `c1ccc2c(c1)nnc1ccccc12`, the pKa turned out to be 2.2.
In turn, `O=C([O-])[C@@H]1CCCN1` yielded a pKa of 10.6.
Consider `Cc1ccnc2ccccc12`, for which the pKa was 5.51.
On the same count and under the same terms, the value for `Cc1cc(C)nc(N)c1` was 7.84; that for `CCc1cccc(CN(C)C)c1O` was 8.02.
As for `Oc1ccccc1CN1CCOCC1`, the pKa turned out to be 7.71.
The compound `COc1cccc(CN(C)C)c1O` gave a pKa of 8.42.
The same measure, in the same setting: the value for `CN(C)CCCN` was 10.
On the same count and under the same terms, the result for `Cc1cc2ccccc2nc1C` reads 4.93.
Still for that read-out and setting: the result for `NCCc1ccccn1` reads 9.51; that for `Cc1cc2cccc(O)c2nc1C`, 5.86.
With `C/C(=N/c1ccccc1O)c1ccccc1O`, the pKa was determined as 5.14.
Same read-out and setting: the result for `COc1ccc(I)cc1C(=O)N[C@@H]1C[C@H]2CC[C@@H](C1)N2Cc1ccccc1` reads 8.79; that for `C[NH+](C)CCCNc1c([N+](=O)[O-])cnc2ccccc12`, 4.43.
`CNCCN(C)CC[NH2+]C` gave a pKa of 9.84.
Still for that read-out and setting: the result for `Cc1ccc(NC(=O)CN2CCCCC2)c(C)c1` reads 7.8; that for `Cc1nc2cccc(N)c2n1C`, 6.66.
In turn, `CCC(=O)OC(C)CN(C)C` (stereo not drawn) displayed a pKa of 8.26.
The same measure, in the same setting: the result for `c1nc2cc3c(cc2[nH]1)CCCC3` reads 5.98.
Same read-out and setting: the value for `NCCOCCO` was 9.43.
`Cn1cc2ccccc2n1` came in with a pKa of 2.13.
Compound `NNC(=O)c1ccccc1[NH3+]` returned a pKa of 1.85.
Compound `CN(C)Cc1cc(C(=O)c2ccccc2)ccc1[O-]` had a pKa of 10.2.
On the same count and under the same terms, the result for `CCN(N)CC` reads 7.63.
In the case of `Nc1ccc(O)c(N)c1`, the pKa stood at 5.7.
Same read-out and setting: the result for `c1cnc2ncncc2n1` reads 4.13; that for `NNC(=O)[C@H](Cc1c[nH]cn1)NC(=O)OCc1ccccc1`, 6.1; that for `CCCNc1ncnc2c1cnn2C`, 4.25.
`CCN(CC)C/C(C)=N/[O-]` displayed a pKa of 11.
As for `CC(N)=S`, the pKa is -2.51.
On the same count and under the same terms, the result for `CNCCCC(=O)[O-]` reads 10.8; that for `CCCCCCCCCCCCCCCCCCNCCCCCCCCCCCCCCCCCC`, 11; that for `O=C(Cc1ccc2ccc3cccnc3c2n1)c1ccccc1`, 4.4.
Turning to `Cn1cncc(-c2ccccc2)c1=O`, the pKa came out at 1.5.
With `C[C@H]1CCCC[C@@H]1N`, the pKa worked out at 10.6.
The same measure, in the same setting: the value for `Cc1ccn(-c2cccc[nH+]2)n1` was -3.9; that for `ONc1ncnc2nc[nH]c12` was 3.8; that for `CN(C)c1ccc2cc3ccc(N(C)C)cc3[nH+]c2c1` was 0.4.
On to `CCN(CC)Cc1cc(C)ccc1O`, for which the pKa worked out at 8.94.
Regarding `N=C(Nc1ccccc1)Nc1nc(N)nc(N)n1`, the pKa stood at 8.2.
On the same count and under the same terms, the value for `Nc1nc(C(F)(F)F)c2[nH]cnc2n1` was 1.85.
Regarding `CNc1nc(SC)nc2[nH]ncc12`, the pKa turned out to be 3.61.
Compound `[O-]c1nc2ccccc2[nH]1` had a pKa of 11.9.
Same read-out and setting: the result for `C/C=C1/CN2[C@@H]3C[C@H]1C1[C@@H](O)[C@]4(C[C@@H]12)c1ccccc1N(C)[C@@H]34` (stereo partly drawn) reads 8.5; that for `N#CC(C#N)=NNc1ccc(C(=O)CCl)cc1`, -0.76; that for `C=C[C@]1(O)C[C@H](C)N[C@@H]2CCCC[C@H]21`, 9.83.
Compound `CC(=O)C1(c2cccc(O)c2)CCN(C)CC1` gave a pKa of 8.61.
As to `CS(=O)Cc1ccccn1` (stereo not drawn), the pKa amounted to 3.1.
Same read-out and setting: the value for `Cc1cnn(C)c1C` was 3.58; that for `NCCCCOc1c2ccccc2cc2ccccc12` was 9.94.
On the same count and under the same terms, the value for `NC(Cc1n[nH]c2ccccc12)C(=O)[O-]` (stereo not drawn) was 8.95; that for `CC(C)CSC(=N)c1ccccc1` was 8.22; that for `COc1ccc2nc3c(c(N4CCOCC4)c2c1)CCC3` was 7.14.
Still for that read-out and setting: the value for `Nc1ccc([N+](=O)[O-])c2ccccc12` was 0.53; that for `Cc1cc([O-])[nH+]cn1` was 2.15.

As a reminder, the pKa is the negative logarithm of the acid dissociation constant. Low values mean a stronger acid or weaker base, high ones a weaker acid or stronger base.

Values taken from the pKa sets of Baltruschat and Czodrowski (2020).
